Reference: patent publication US10765651B2, “Co-crystals of substituted glycine and uses thereof” (SyneuRx International (Taiwan) Corp., priority 2017, dated 2020)

Key:
Assay type in all cases: physicochemical
[1] = Hygroscopicity test, condition 2 (humidity chamber, weight change); details: for Weight change (%): dry before (change on drying to 0 hr weight)
[2] = Hygroscopicity test, condition 3 (dynamic vapor sorption, 0 to 90 to 0% RH); details: DVS, 25° C.
Experimental: Measurement were taken from 0 to 90 to 0% RH at 25° C. with 10% RH per step with equilibration set to dm/dt+0.01%/min for 10 min or 180 min/step.

[3] = Hygroscopicity test of fumaric acid co-crystals under ambient conditions
Experimental: 0.1 to 0.5 g of each of 1:1, 2:1, 3:1, and 6:1 N-methylglycine co-crystals were placed in the vial under the ambient conditions. The weight changes at various time points of each co-crystal were measured and illustrated in Table 4 below.

[4] = 30° C., 75% RH, 5 hr, listed as 1:1 N-methylglycine:DL-tartaric acid co-crystal

Row | Structure (SMILES) | Weight ([1]; 30° C., 75% RH, 0 hr) [g] | Weight ([1]; 30° C., 75% RH, 1 hr) [g] | Weight change (%), water absorbed ([1]; 30° C., 75% RH, 1 hr) | Outward (appearance) ([1]; 30° C., 75% RH, 2 hr) | Weight ([1]; 30° C., 75% RH, 2 hr) [g] | Weight change (%), water absorbed ([1]; 30° C., 75% RH, 2 hr) | Weight ([1]; 30° C., 75% RH, 3 hr) [g] | Weight change (%), water absorbed ([1]; 30° C., 75% RH, 3 hr) | Outward (appearance) ([1]; 30° C., 75% RH, 5 hr) | Weight ([1]; 30° C., 75% RH, 5 hr) [g] | Weight change (%), water absorbed ([1]; 30° C., 75% RH, 5 hr) | Outward (appearance) ([1]; 30° C., 75% RH, 24 hr) | Weight ([1]; 30° C., 75% RH, 24 hr) [g] | Weight change (%), water absorbed ([1]; 30° C., 75% RH, 24 hr) | Weight ([1]; 30° C., 75% RH, 48 hr) [g] | Weight change (%), water absorbed ([1]; 30° C., 75% RH, 48 hr) | Weight ([1]; 30° C., 75% RH, 72 hr) [g] | Weight change (%), water absorbed ([1]; 30° C., 75% RH, 72 hr) | Change In Mass (%) ([2]; RH 70%) | Change In Mass (%) ([2]; RH 90%) | further results
1 | CNCC(=O)O.O=C(O)C(O)C(O)C(=O)O (racemic) [N-MG/DL-TA = 1/1, N-methylglycine:DL-tartaric acid 1:1 co-crystal] | 0.1302 | 0.1349 | (+3.6%) | Wet | 0.1399 | (+7.4%) | 0.1469 | (+12.8%) | Partial | 0.1545 | (+18.7%) | 50% | 0.1819 | (+39.7%) | 0.1819 | (+39.7%) | 0.1823 | (+40.0%) |  |  | Outward (appearance) [1, 4]: started to turn into a partial liquid; Weight change (%), water absorbed [1, 4]: 18.7%; Hygroscopicity comparison ([1]; 30° C., 75% RH, listed as 1:1 N-methylglycine:DL-tartaric acid co-crystal): much less hygroscopic than 2:1 N-methylglycine:DL-tartaric acid co-crystal; Outward (appearance) ([1]; dry before): White; Weight ([1]; dry before): 0.1305 g; Weight change (%) [1]: (−0.2%)
2 | CNCC(=O)O.CNCC(=O)O.O=C(O)C(O)C(O)C(=O)O (racemic) [N-MG/DL-TA = 2/1, N-methylglycine:DL-tartaric acid 2:1 co-crystal] | 0.1628 | 0.1695 | (+4.1%) | Wet | 0.1768 | (+8.6%) | 0.1816 | (+11.5%) | Partial | 0.1877 | (+15.3%) | Liquid | 0.2374 | (+45.8%) | 0.2423 | (+48.8%) | 0.2441 | (+49.9%) | 3.12 | 30.35 | Outward (appearance) ([1]; dry before): White; Weight ([1]; dry before): 0.1628 g; Weight change (%) [1]: (−0%); Change In Mass (%) ([2]; RH 0%): 0.00%; Change In Mass (%) ([2]; RH 10%): 0.15%; Change In Mass (%) ([2]; RH 20%): 0.21%; Change In Mass (%) ([2]; RH 30%): 0.26%; Change In Mass (%) ([2]; RH 40%): 0.77%; Change In Mass (%) ([2]; RH 60%): 2.03%; Change In Mass (%) ([2]; RH 80%): 8.12%
3 | CNCC(=O)O.CNCC(=O)O.O=C(O)C(O)C(O)C(=O)O (racemic) [N-methylglycine:DL-tartaric acid 2:1 co-crystal] |  |  |  |  |  |  |  |  |  |  |  |  |  |  |  |  |  |  | 3.12 | 30.35 | 
4 | CNCC(=O)O.CNCC(=O)O.O=C(O)C(O)C(O)C(=O)O [N-MG/D-TA = 2/1, N-methylglycine:D-tartaric acid 2:1 co-crystal] |  |  |  |  |  |  |  |  |  |  |  |  |  |  |  |  |  |  | 0.31 | 14.27 | Change In Mass (%) ([2]; RH 0%): 0.00%; Change In Mass (%) ([2]; RH 10%): 0.02%; Change In Mass (%) ([2]; RH 20%): 0.04%; Change In Mass (%) ([2]; RH 30%): 0.07%; Change In Mass (%) ([2]; RH 40%): 0.10%; Change In Mass (%) ([2]; RH 50%): 0.15%; Change In Mass (%) ([2]; RH 60%): 0.20%; Change In Mass (%) ([2]; RH 80%): 0.60%
5 | CNCC(=O)O.O=C(O)/C=C/C(=O)O [N-MG/FA = 1/1, N-methylglycine:fumaric acid (1:1 co-crystal)] |  |  |  |  |  |  |  |  |  |  |  |  |  |  |  |  |  |  |  |  | Hygroscopicity comparison [3]: much less hygroscopic than the 2:1, 3:1, and 6:1 co-crystals; Change In Mass (%) ([3]; 1 hr): 0.48%; Change In Mass (%) ([3]; 2 hr): 0.67%; Change In Mass (%) ([3]; 3 hr): 0.57%; Change In Mass (%) ([3]; 4 hr): 0.57%; Change In Mass (%) ([3]; 5 hr): 0.57%; Change In Mass (%) ([3]; 21 hr): 0.96%; Change In Mass (%) ([3]; 24 hr): 0.96%; Change In Mass (%) ([3]; 45 hr): 0.96%; Change In Mass (%) ([3]; 48 hr): 0.96%; Change In Mass (%) ([3]; 96 hr): 0.96%
6 | CNCC(=O)O.CNCC(=O)O.O=C(O)/C=C/C(=O)O [N-MG/FA = 2/1, N-methylglycine:fumaric acid (2:1 co-crystal)] |  |  |  |  |  |  |  |  |  |  |  |  |  |  |  |  |  |  |  |  | Change In Mass (%) ([3]; 15 hr): 5.81%; Change In Mass (%) ([3]; 21 hr): 6.29%; Change In Mass (%) ([3]; 45 hr): 7.08%; Change In Mass (%) ([3]; 48 hr): 7.12%; Change In Mass (%) ([3]; 64 hr): 7.49%
